{"source": "paper PMC12766724", "about": "“Synthesis, Anthelmintic Activity, and Mechanism of Action of 5‑Aryl‑1H‑indoles” (Journal of Agricultural and Food Chemistry, 2025)", "key": {"[1]": {"tested_on": "mitochondrial membrane potential of C. elegans young adults", "assay": "Mitochondrial membrane potential measurement", "format": "in vivo, Caenorhabditis elegans", "details": "100 μM; 24 h", "description": "After 24 h, the compounds were washed away. Then, the mitochondrial membrane potential was measured using a specialized fluorescent dye (kit MAK147, Sigma-Aldrich). The kit was used according to the manufacturer’s instructions with modified incubation temperature and time (20 °C, 4 h) to account for the fact that living intact worms were used instead of cell cultures. , Dyed worms (approximately 200 per well) were distributed onto a black 96-well plate, and the fluorescence was measured using a Tecan Infinite 200 Pro plate reader.\nDetermining the mechanism of action of compounds is always challenging; however, the nature of their effect, as well as the structural similarity to compounds with known properties, can provide useful insights. One of our hypotheses was that the compounds might interfere with energy production. We based this assumption on the behavior of compound-treated worms (delayed development, lower fecundity, and relatively rapid decrease in motility rates but not necessarily death). Impaired mitochondrial function would be accompanied by a decrease in mitochondrial membrane potential (MMP)."}, "[2]": {"tested_on": "C. elegans MCII mutant RP2699", "assay": "Acute motility of young adults on WMicrotracker ONE", "format": "in vivo, Caenorhabditis elegans", "details": "100 μM; 24 h", "description": "(§1) The effect of compounds on C. elegans N2 and SDH mutant strains was measured in a similar manner. Briefly, for evaluation of the acute effect of the compounds, age-synchronized young adults of each strain, kept in S complete medium supplemented with E. coli OP50 (3 mg/mL, fresh weight), were transferred onto microtiter plates (96-well, U bottom), and their initial motility was measured for 30 min. […] Afterward, the compounds were washed away, and worms, supplemented with fresh liquid media and food, were distributed onto 96-well plates and allowed to recover. Their activity was measured using WMicrotracker ONE at the indicated time points.\n(§2) To experimentally support this promising initial finding, we tested the effect of i-19 against several C. elegans MCII mutant strains. These nematodes carry point mutations that result in amino acid changes in regions of subunits SDHC and SDHD that contribute to the formation of the ubiquinone-binding pocket, thereby influencing its shape and the ability of inhibitors to interact with the protein. […] The compounds were tested in multiple setups. At first, young adults were exposed to higher doses (100, 50, and 10 μM) of the compounds for up to 48 h, and changes in motility were evaluated using WMicrotracker. For both compounds, we observed a less pronounced decrease in movement rates of MCII mutants compared to wild-type worms, in both a dose- and time-dependent manner (Figure )."}, "[3]": {"tested_on": "C. elegans MCII mutant RP2700", "assay": "Acute motility of young adults on WMicrotracker ONE", "format": "in vivo, Caenorhabditis elegans", "details": "100 μM; 24 h", "description": "as §1, §2"}, "[4]": {"tested_on": "C. elegans MCII mutant RP2702", "assay": "Acute motility of young adults on WMicrotracker ONE", "format": "in vivo, Caenorhabditis elegans", "details": "100 μM; 24 h", "description": "as §1, §2"}, "[5]": {"tested_on": "C. elegans wild-type N2", "assay": "Acute motility of young adults on WMicrotracker ONE", "format": "in vivo, Caenorhabditis elegans", "details": "100 μM; 24 h", "description": "as §1, §2"}, "[6]": {"tested_on": "C. elegans N2", "assay": "Scoring of developmental rates, L1 exposed 5 days", "format": "in vivo, Caenorhabditis elegans", "description": "(§3) Dead or mostly immobile worms, arrested at the L1 stage, received a score of 1. Populations with severely delayed development were scored as 2. More developmentally advanced, but still obviously delayed worms were given the score of 3. Adult worms that produce a noticeably lower number of progeny received a score of 4. Healthy worms that reproduce normally (i.e., hundreds of eggs and larvae are present) were scored as 5 (see Figure C for representative images). In a typical, correctly prepared experiment, vehicle-treated populations should receive a score of 5, while worms treated with ivermectin (positive control) should receive a score of 1. […]"}, "[7]": {"tested_on": "C. elegans complex II mutant RP2699", "assay": "Scoring of developmental rates, L1 exposed 5 days", "format": "in vivo, Caenorhabditis elegans", "description": "as §3"}, "[8]": {"tested_on": "C. elegans complex II mutant RP2700", "assay": "Scoring of developmental rates, L1 exposed 5 days", "format": "in vivo, Caenorhabditis elegans", "description": "as §3"}, "[9]": {"tested_on": "C. elegans complex II mutant RP2702", "assay": "Scoring of developmental rates, L1 exposed 5 days", "format": "in vivo, Caenorhabditis elegans", "description": "as §3"}, "[10]": {"tested_on": "C. elegans wild-type and MCII mutant strains", "assay": "Scoring of developmental rates, comparison of strains", "format": "in vivo, Caenorhabditis elegans", "details": "L1 exposed 5 days", "description": "Dead or mostly immobile worms, arrested at the L1 stage, received a score of 1. Populations with severely delayed development were scored as 2. More developmentally advanced, but still obviously delayed worms were given the score of 3. Adult worms that produce a noticeably lower number of progeny received a score of 4. Healthy worms that reproduce normally (i.e., hundreds of eggs and larvae are present) were scored as 5 (see Figure C for representative images). In a typical, correctly prepared experiment, vehicle-treated populations should receive a score of 5, while worms treated with ivermectin (positive control) should receive a score of 1.\nWe attribute this discrepancy to methodological differences: in previous studies, earlier larval stages, longer exposure times, and different evaluation methods, possibly more sensitive than WMicrotracker, were used."}, "[11]": {"tested_on": "C. elegans wild-type and MCII mutants", "assay": "Recovery of pretreated worms on WMicrotracker ONE", "format": "in vivo, Caenorhabditis elegans", "details": "5 or 10 μM for 72 h, then wash-out and recovery", "description": "as §1, with “Briefly,” for “The effect of compounds on C. elegans N2 and SDH mutant strains was measured in a similar manner. Briefly,”\nC. elegans L1 larvae were exposed to 5 or 10 μM of the compounds for 72 h, after which the compounds were washed away, and the recovery of the nematodes was evaluated using WMicrotracker."}, "[12]": {"tested_on": "wild-type C. elegans", "set-up": "method as in previously published data", "details": "earlier larval stages, longer exposure times; ref previously published data; cited from earlier work"}}, "data": [{"compound": "O=C(NCCc1ncc(C(F)(F)F)cc1Cl)c1ccccc1C(F)(F)F", "note": "[fluopyram, reference compound]", "values": [{"measurement": "MMP signal lower than in vehicle-treated control animals", "setting": "[1]", "value": "~85", "unit": "%"}, {"measurement": "decrease of mean activity counts", "setting": "[2]", "value": 53, "unit": "%"}, {"measurement": "decrease of mean activity counts", "setting": "[3]", "value": 16, "unit": "%"}, {"measurement": "decrease of mean activity counts", "setting": "[4]", "value": 28, "unit": "%"}, {"measurement": "decrease of mean activity counts", "setting": "[5]", "value": 60, "unit": "%"}, {"measurement": "mean score (1-5)", "setting": "[6]; 0.012 µM", "value": 4.667}, {"measurement": "mean score (1-5)", "setting": "[6]; 0.024 µM", "value": 4.333}, {"measurement": "mean score (1-5)", "setting": "[6]; 0.049 µM", "value": 3.667}, {"measurement": "mean score (1-5)", "setting": "[6]; 0.195 µM", "value": 2.778}, {"measurement": "mean score (1-5)", "setting": "[6]; 0.391 µM", "value": 2}, {"measurement": "mean score (1-5)", "setting": "[6]; 0.781 µM", "value": 1}, {"measurement": "mean score (1-5)", "setting": "[6]; 1.563 µM", "value": 1}, {"measurement": "mean score (1-5)", "setting": "[6]; 3.125 µM", "value": 1}, {"measurement": "mean score (1-5)", "setting": "[6]; 6.25 µM", "value": 1}, {"measurement": "mean score (1-5)", "setting": "[6]; 12.5 µM", "value": 1}, {"measurement": "mean score (1-5)", "setting": "[6]; 25 µM", "value": 1}, {"measurement": "mean score (1-5)", "setting": "[6]; 50 µM", "value": 1}, {"measurement": "mean score (1-5)", "setting": "[6]; 100 µM", "value": 1}, {"measurement": "mean score (1-5)", "setting": "[7]; 0.012 µM", "value": 4.667}, {"measurement": "mean score (1-5)", "setting": "[7]; 0.024 µM", "value": 4.444}, {"measurement": "mean score (1-5)", "setting": "[7]; 0.049 µM", "value": 4}, {"measurement": "mean score (1-5)", "setting": "[7]; 0.195 µM", "value": 4.556}, {"measurement": "mean score (1-5)", "setting": "[7]; 0.391 µM", "value": 4.444}, {"measurement": "mean score (1-5)", "setting": "[7]; 0.781 µM", "value": 3.889}, {"measurement": "mean score (1-5)", "setting": "[7]; 1.563 µM", "value": 3.111}, {"measurement": "mean score (1-5)", "setting": "[7]; 3.125 µM", "value": 3.333}, {"measurement": "mean score (1-5)", "setting": "[7]; 6.25 µM", "value": 1.222}, {"measurement": "mean score (1-5)", "setting": "[7]; 12.5 µM", "value": 1}, {"measurement": "mean score (1-5)", "setting": "[7]; 25 µM", "value": 1}, {"measurement": "mean score (1-5)", "setting": "[7]; 50 µM", "value": 1.222}, {"measurement": "mean score (1-5)", "setting": "[7]; 100 µM", "value": 1}, {"measurement": "mean score (1-5)", "setting": "[8]; 0.012 µM", "value": 5}, {"measurement": "mean score (1-5)", "setting": "[8]; 0.024 µM", "value": 5}, {"measurement": "mean score (1-5)", "setting": "[8]; 0.049 µM", "value": 5}, {"measurement": "mean score (1-5)", "setting": "[8]; 0.195 µM", "value": 4.778}, {"measurement": "mean score (1-5)", "setting": "[8]; 0.391 µM", "value": 4.444}, {"measurement": "mean score (1-5)", "setting": "[8]; 0.781 µM", "value": 3.556}, {"measurement": "mean score (1-5)", "setting": "[8]; 1.563 µM", "value": 3.667}, {"measurement": "mean score (1-5)", "setting": "[8]; 3.125 µM", "value": 2.444}, {"measurement": "mean score (1-5)", "setting": "[8]; 6.25 µM", "value": 1.222}, {"measurement": "mean score (1-5)", "setting": "[8]; 12.5 µM", "value": 1}, {"measurement": "mean score (1-5)", "setting": "[8]; 25 µM", "value": 1.333}, {"measurement": "mean score (1-5)", "setting": "[8]; 50 µM", "value": 1}, {"measurement": "mean score (1-5)", "setting": "[8]; 100 µM", "value": 1}, {"measurement": "mean score (1-5)", "setting": "[9]; 0.012 µM", "value": 5}, {"measurement": "mean score (1-5)", "setting": "[9]; 0.024 µM", "value": 5}, {"measurement": "mean score (1-5)", "setting": "[9]; 0.049 µM", "value": 5}, {"measurement": "mean score (1-5)", "setting": "[9]; 0.195 µM", "value": 4.889}, {"measurement": "mean score (1-5)", "setting": "[9]; 0.391 µM", "value": 4.667}, {"measurement": "mean score (1-5)", "setting": "[9]; 0.781 µM", "value": 4.111}, {"measurement": "mean score (1-5)", "setting": "[9]; 1.563 µM", "value": 3.556}, {"measurement": "mean score (1-5)", "setting": "[9]; 3.125 µM", "value": 3.111}, {"measurement": "mean score (1-5)", "setting": "[9]; 6.25 µM", "value": 2.333}, {"measurement": "mean score (1-5)", "setting": "[9]; 12.5 µM", "value": 1}, {"measurement": "mean score (1-5)", "setting": "[9]; 25 µM", "value": 1}, {"measurement": "mean score (1-5)", "setting": "[9]; 50 µM", "value": 1}, {"measurement": "mean score (1-5)", "setting": "[9]; 100 µM", "value": 1}, {"measurement": "concentrations at which all strains were severely affected", "setting": "[10]", "value": "> 6.25", "unit": "µM"}, {"measurement": "resistance of MCII mutants compared to wild-type", "setting": "[11]", "value": "increased resistance of the MCII mutants"}, {"measurement": "concentrations that strongly affect wild-type C. elegans", "setting": "[12]", "value": "below 1 μM"}]}]}
